Reference: patent EP3075378A1, “ANTI-INFLAMMATORY AGENT AND MELANIN PRODUCTION SUPPRESSANT” (Kao Corporation, priority 2013, dated 2015)

Legend:
[1] = Test of melanin production suppression, using three-dimensional cultured skin model; type: cell-based, human; details: Homo sapiens, 264 h; Addition concentration 5 mmol/L; method as Example 6; relative to control (H2O) 100; read-out: Melanin amount (%)
Description: (§1) A three-dimensional cultured skin model (MEL-300-A, manufactured by MatTek Corporation) composed of normal human epidermal melanocytes and epidermal keratinocytes was cultured, using the attached medium to which factors inducing melanin production were added. 25 µL of a pentaerythritol solution (1 or 5 mmol/L) was added onto the keratinous layer of the skin model. The skin model was cultured for 11 days exchanging the medium and the test substance solution every 2 to 3 days, and then the skin model was washed, and the cell survival rate was measured using Alamar Blue (manufactured by Invitrogen). In addition, the skin model was dissolved under heating in SOLVABLE (manufactured by Perkin Elmar), and the absorbance (405 nm) was measured and the amount of melanin was calculated relative to a standard determined by similarly dissolving melanin (manufactured by SIGMA) in SOLVABLE. The amount of melanin was determined relative to 100 (%) of the control (H2O addition).
(§2) The test method is similar to that of Example 6.

[2] = system: three-dimensional cultured skin model (MEL-300-A) composed of normal human epidermal melanocytes and epidermal keratinocytes; experiment: Cell survival rate (Alamar Blue) in three-dimensional cultured skin model; type: cell-based
Description: as §1, §2

[3] = system: Normal human epidermal cells; experiment: Test-2 of PGE2 production suppression (UVB irradiation); type: cell-based; details: after 30 mJ/cm^2 UVB, culture supernatant after one day, control 670.1 ± 23.97
Description: Normal human epidermal cells were seeded on a 24 well plate by 2 × 10^5 each, and cultured for two days on a MCDB153 medium. The medium was replaced with HEPES Buffer, and was irradiated with 30 mJ/cm^2 UVB using a UVB lamp (TOREX FL20S and E-30/DMR 20W manufactured by TOSHIBA MEDICAL SUPPLY CO., LTD.). The intensity of ultraviolet rays was measured with a digital type ultraviolet intensity meter (manufactured by Ultraviolet). After the UVB irradiation, the medium was exchanged with a MCDB153 medium containing pentaerythritol (manufactured by JUNSEI CHEMICAL CO., LTD.), and further cultured for one day. As a control, purified water was added instead of pentaerythritol. After completion of the culture, the amount of PGE2 released in the culture supernatant was quantified using a PGE2 measurement kit (manufactured by Cayman Chemical Company). In addition, in the same manner as the control, a control group containing purified water and not irradiated with UVB was provided.

[4] = system: three-dimensional cultured skin model (MEL-300-A) composed of normal human epidermal melanocytes and epidermal keratinocytes; experiment: Test of melanin production suppression, using three-dimensional cultured skin model; type: cell-based; details: 25 µL on keratinous layer, 11 days culture, relative to 100 (%) of control (H2O)
Description: as §1, §2

[5] = system: Normal human epidermal cells; experiment: Test-1 of PGE2 production suppression (arachidonic acid added); type: cell-based; details: culture supernatant after one day, control 1711.7 ± 25.91
Description: Normal human epidermal cells were seeded on a 24 well plate by 2 × 10^5 each, and cultured for 2 days on a MCDB153 medium. The medium was exchanged with a MCDB153 medium containing arachidonic acid (manufactured by Wako Pure Chemical Industries, Ltd.), which is a substrate of PGE2, and pentaerythritol (manufactured by JUNSEI CHEMICAL CO., LTD.) or the two acetal derivatives of pentaerythritol (the compounds of Examples 1 and 2), and the cells were further cultured for one day. As a control, purified water was added instead of pentaerythritol or the acetal derivative of pentaerythritol. After completion of the culture, the amount of PGE2 released in the cultured supernatant was quantified using a PGE2 measurement kit (manufactured by Cayman Chemical Company). In addition, in the same manner as the control, a control group to which purified water was added, but arachidonic acid was not added, was provided.

Structure (SMILES)	activity at 5000 µM [1] [%]	PGE2 amount (pg/mL) ± SD ([5]; sample concentration 0.5 µM) [pg/mL]	PGE2 amount (pg/mL) ± SD ([5]; sample concentration 5.0 µM) [pg/mL]	further results
OC[C@@H](O)[C@@H](O)CO [Erythritol, reference compound]	97	–	–	–
OC[C@@H](O)[C@@H](O)[C@H](O)[C@H](O)CO [Mannitol, reference compound]	96.3	–	–	cell toxicity ([2]; 5 mmol/L, Example 7, method as Example 6): not detected
OCC(CO)(CO)CO [Pentaerythritol]	–	789.2 ± 168.61	1151.3 ± 6.73	cell toxicity ([2]; 1 or 5 mmol/L, any test addition concentration, 11 days culture): not detected; PGE2 amount (pg/mL) ± SD ([3]; sample concentration 0.05 µM): 565.5 ± 28.10 pg/mL; PGE2 amount (pg/mL) ± SD ([3]; sample concentration 0.5 µM): 522.8 ± 50.40 pg/mL; PGE2 amount (pg/mL) ± SD ([3]; sample concentration 5.0 µM): 512.3 ± 65.31 pg/mL; amount of melanin (%) ([4]; 1 mmol/L): 83.8%; amount of melanin (%) ([4]; 5 mmol/L): 76.7%
CC1(C)OCC2(CO1)COC(C)(C)OC2 [diisopropylidene pentaerythritol]	–	746.0 ± 28.70	1142.0 ± 19.94	–
CC1(C)OCC(CO)(CO)CO1 [monoisopropylidene pentaerythritol]	–	824.7 ± 28.78	790.5 ± 11.64	–
